# Test results from patent EP2423181A1, “Multitarget substituted biphenyl diol derivatives” (PROUS INSTITUTE FOR BIOMEDICAL RESEARCH S.A., priority 2010, dated 2012).
# pIC50: −log10 of the molar value. Structures can show the parent of a compound that is named as a salt.
# Tests used:
# Src = molecular target: T1, Src (Homo sapiens, UniProt P12931); test: Src protein tyrosine kinase inhibition (ELISA of Poly[Glu:Tyr-P]); assay type: biochemical; details: Src, at 10 µM; read-out: % Inhibition
# T1 construct: host or cells: Sf9 insect cells
# Experimental: Src protein tyrosine kinase activity was assessed in human recombinant insect Sf9 cells using as a substrate Poly(Glu:Tyr) at 10 µg/mL with preincubation and incubation times of 15 and 5 min, respectively, at 22°C in 50 mM HEPES, pH 7.4, 1 mM DTT, 20 mM MgCl2 and 0.2 mM Na3VO4. An ELISA quantitation method of Poly[Glu:Tyr-P] was employed (Farley, K et al. Anal Biochem, 1992, 203, 151-157). Table 4. Inhibition of Src at 10 µM
# tumor brain U-87 MG = test: Tumor cell proliferation assay (alamarBlue); assay type: cell-based; details: Homo sapiens; tumor brain U-87 MG; read-out: IC50
# Experimental: (§1) Changes in cell proliferation were detected based on the ability of viable cells to cause alamarBlue® to change its oxidized (non-fluorescent, blue) to a reduced (fluorescent, red) form. The alamarBlue® reaction allows the quantification of cell proliferation and examination of the metabolic activity of viable cells. Test substances were examined for activity on the proliferation of human or murine tumor cell lines at assay concentrations from 0.01 to 100 µM.
# tumor breast MCF-7 = test: Tumor cell proliferation assay (alamarBlue); assay type: cell-based; details: Homo sapiens, MCF7; tumor breast MCF-7; read-out: IC50
# Experimental: as §1
# tumor breast MDA-MB-231 = test: Tumor cell proliferation assay (alamarBlue); assay type: cell-based; details: Homo sapiens; tumor breast MDA-MB-231; read-out: IC50
# Experimental: as §1
# tumor breast T-47D = test: Tumor cell proliferation assay (alamarBlue); assay type: cell-based; details: Homo sapiens, T47D; tumor breast T-47D; read-out: IC50
# Experimental: as §1
# tumor colon HCT-116 = test: Tumor cell proliferation assay (alamarBlue); assay type: cell-based; details: Homo sapiens; tumor colon HCT-116; read-out: IC50
# Experimental: as §1
# tumor leukaemia K562 = test: Tumor cell proliferation assay (alamarBlue); assay type: cell-based; details: Homo sapiens; tumor leukaemia K562; read-out: IC50
# Experimental: as §1
# tumor liver Hep 3B = test: Tumor cell proliferation assay (alamarBlue); assay type: cell-based; details: Homo sapiens, Hep3B; tumor liver Hep 3B; read-out: IC50
# Experimental: as §1
# tumor liver HepG2 = test: Tumor cell proliferation assay (alamarBlue); assay type: cell-based; details: Homo sapiens; tumor liver HepG2; read-out: IC50
# Experimental: as §1
# tumor lung A549 = test: Tumor cell proliferation assay (alamarBlue); assay type: cell-based; details: Homo sapiens; tumor lung A549; read-out: IC50
# Experimental: as §1
# tumor ovary OVCAR-3 = test: Tumor cell proliferation assay (alamarBlue); assay type: cell-based; details: Homo sapiens; tumor ovary OVCAR-3; read-out: IC50
# Experimental: as §1
# tumor prostate LNCaP-FGC = test: Tumor cell proliferation assay (alamarBlue); assay type: cell-based; details: Homo sapiens; tumor prostate LNCaP-FGC; read-out: IC50
# Experimental: as §1
# tumor melanoma B16-FO = test: Tumor cell proliferation assay (alamarBlue); assay type: cell-based, murine; details: Mus musculus; tumor melanoma B16-FO; read-out: IC50
# Experimental: as §1
# [1] = Maximum Tolerated Dose after acute administration; details: mouse, in vivo, ip, mice
# Experimental: The Maximum Tolerated Dose (MTD) in mice was determined for selected compounds. The protocol of the studies was in accordance with the standard guidelines for drug development: • (htp://dtp.nci.nih.gov/branches/btb/acute tox.html). Table 10. Maximum Tolerated Doses in mice after acute i.p. administration
# mice [2] = test: Formalin test (antinociceptive activity); assay type: in vivo
# Experimental: The chemical irritant formalin test is used as a chronic pain model in animals. The s.c. administration of formalin to the paw of a mouse produces a biphasic nociceptive behavioral response, an early response (0-5 min after injection) and a late response (20-30 min after injection) (Hunskaar, S., Fasmer, O.B., Hole, K. Formalin test in mice, a useful technique for evaluating mild analgesics. J Neurosci Methods, 1985 ;14(1):69-76).
# Aspirine and paracetamol are included as external active references in early and late response. Table 12. Early and late response inhibition in the formalin test.
# mice [3] = test: Hot plate test (analgesic activity); assay type: in vivo; details: 10 and 30 mg/kg i.p.
# Experimental: The hot plate test was used as an animal model of thermally-induced pain. The inhibitory activity measured on the time licking and biting induced by temperature (30 sec max at 55°C) indicates analgesic effect. […] Table 13. Analgesic activity of example 1 in the hot plate test
# [4] = molecular target: T2, Gonadotrophin-releasing hormone receptors (GnRH, LH-RH)R (Homo sapiens, UniProt P30968); test: GnRH radioligand binding assay; details: GnRH radioligand binding, 10 µM; read-out: % Inhibition at 10 µM
# T2 construct: expressed in transfected cells; host or cells: Chem-1 cells
# T2 sequence (P30968 1-328): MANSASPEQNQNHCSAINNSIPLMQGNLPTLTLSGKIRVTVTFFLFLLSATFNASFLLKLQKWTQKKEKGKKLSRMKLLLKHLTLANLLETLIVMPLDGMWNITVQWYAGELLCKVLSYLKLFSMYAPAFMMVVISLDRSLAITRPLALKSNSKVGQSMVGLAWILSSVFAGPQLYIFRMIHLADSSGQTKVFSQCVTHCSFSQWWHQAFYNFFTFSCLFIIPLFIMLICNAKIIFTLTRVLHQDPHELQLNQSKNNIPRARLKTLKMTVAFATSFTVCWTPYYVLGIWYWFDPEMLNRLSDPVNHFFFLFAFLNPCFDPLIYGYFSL
# Source text: Gonadotrophin-releasing hormone receptors (GnRH, LH-RH)R are a family of G protein-coupled receptors for GnRH, which promotes the secretion of luteinizing hormone (LH) and follicle-stimulating hormone (FSH). The activation of this receptor promotes, through estrogen receptors (ER) located in the cytosol, an increase in gene transcription and activation of tumor suppressor genes, DNA repair, cell division and cell proliferation. GnRH agonists are useful in breast, prostate and ovarian cancer, endometriosis, melanoma, rheumatoid arthritis and Alzheimer's disease. Table 17 presents the results from radioligand binding studies for GnRH for selected compounds using human recombinant Chem-1 cells (Halmos G, Schally AV, Pinski J, Vadillo-Buenfill M, Groot K. Down regulation of pituitary receptors for luteinizing hormone-releasing hormone (LH-RH) in rats by LH-RH antagonist Cetrorelix. Prco Natl Acad Sci USA 1996;93(6):2398-2402). The specific and non specific ligands used were [^125l] [D-Trp^6]-LH-RH (0.05 nM) and [D-Trp^6]-LH-RH ([…]) and after 60 min of incubation at 25°C in a 50 mM HEPES, pH 7.5, 5 mM MgCl2, 1 mM CaCl2, and 0.2% BSA the activity was measured by radioligand binding. Table 17. GnRH radioligand binding assay
# NET = molecular target: T3, NET (Homo sapiens, UniProt P23975); test: Norepinephrine transporter binding ([3H]nisoxetine)
# T3 construct: expressed in transfected cells; host or cells: CHO cells
# Experimental: (§2) Serotonin transporter (SERT) inhibitors increase extracellular concentrations of serotonin (5-HT) and amplify signals sent by serotonin neurons. Agents that block SERT have been studied for the treatment of several diseases including depression and anxiety. Inhibitors of monoamine transporters have been tested for NET (Pacholczyk, T. et al. Nature, 1991, 350, 350-354) and SERT (Tatsumi, M. et al. Eur J Pharmacol, 1999, 368, 277-283). Norepinephrine transport was assessed in human recombinant CHO cells using [^3H]nisoxetine as a ligand at 1 nM after 60 min of incubation at 22°C, and a scintillation method as a method of detection. Serotonine transport was assessed in human recombinant CHO cells using [^3H]imipramine as a ligand at 2 nM after 60 min of incubation at 22°C, and a scintillation counting as a method of detection.
# NE Uptake = test: Norepinephrine uptake inhibition; assay type: biochemical
# SERT = molecular target: T4, SERT (Homo sapiens, UniProt P31645); test: Serotonin transporter binding ([3H]imipramine)
# T4 construct: expressed in transfected cells; host or cells: CHO cells
# Experimental: as §2
# 5-HT Uptake = test: Serotonin uptake inhibition in brain synaptosomes; assay type: biochemical, rat
# Experimental: Inhibition of serotonin uptake has been tested in rat brain synaptosomes using [^3H]serotonin (0.2 µCi/ml) after 15 min of incubation at 37°C and measuring the incorporation of [^3H]serotonin into synaptosomes by scintillation counting (Perovic, S. and Muller, W.E.G. Arzneim-Forsch. Drug Res., 1995, 45, 1145-1148).
# 5-HT2A receptor = molecular target: T5, 5-HT2A receptor (Homo sapiens, UniProt P28223); test: 5-HT2A receptor binding ([3H]ketanserin); details: 5-HT2A binding
# T5 construct: expressed in transfected cells; host or cells: HEK-293 cells
# Experimental: The 5-HT2A receptor belongs to the G-protein-coupled receptor (GPCR) target class linked to anxiety and depression. Using human recombinant HEK-293 cells, the binding of compounds of formula (I) to this receptor was determined. The ligand used was [^3H]ketanserin at 0.5 nM and the quantification of the activity was assessed by scintillation counting after 60 min at 22°C (Bonhaus, et al. Br J Pharmacol, 1995, 115, 622-628). Table 16. Inhibition of 5-HT2A binding
# mice [5] = details: i.p. in mice, comparative antineoplastic agents; cited from earlier work
# T5 sequence (P28223 whole entry): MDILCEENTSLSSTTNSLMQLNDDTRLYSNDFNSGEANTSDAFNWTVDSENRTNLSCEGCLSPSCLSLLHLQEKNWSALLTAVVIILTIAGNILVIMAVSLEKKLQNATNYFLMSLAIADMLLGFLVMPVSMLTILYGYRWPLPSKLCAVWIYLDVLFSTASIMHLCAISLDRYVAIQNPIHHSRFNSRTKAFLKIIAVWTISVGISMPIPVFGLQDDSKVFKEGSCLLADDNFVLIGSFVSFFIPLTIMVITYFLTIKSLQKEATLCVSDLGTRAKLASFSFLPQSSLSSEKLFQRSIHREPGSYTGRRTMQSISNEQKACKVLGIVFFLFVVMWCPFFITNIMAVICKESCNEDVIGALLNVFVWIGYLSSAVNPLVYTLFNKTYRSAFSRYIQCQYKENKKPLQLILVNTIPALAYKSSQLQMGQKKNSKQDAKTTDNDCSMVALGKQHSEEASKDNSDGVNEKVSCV
# T1 sequence (P12931 whole entry): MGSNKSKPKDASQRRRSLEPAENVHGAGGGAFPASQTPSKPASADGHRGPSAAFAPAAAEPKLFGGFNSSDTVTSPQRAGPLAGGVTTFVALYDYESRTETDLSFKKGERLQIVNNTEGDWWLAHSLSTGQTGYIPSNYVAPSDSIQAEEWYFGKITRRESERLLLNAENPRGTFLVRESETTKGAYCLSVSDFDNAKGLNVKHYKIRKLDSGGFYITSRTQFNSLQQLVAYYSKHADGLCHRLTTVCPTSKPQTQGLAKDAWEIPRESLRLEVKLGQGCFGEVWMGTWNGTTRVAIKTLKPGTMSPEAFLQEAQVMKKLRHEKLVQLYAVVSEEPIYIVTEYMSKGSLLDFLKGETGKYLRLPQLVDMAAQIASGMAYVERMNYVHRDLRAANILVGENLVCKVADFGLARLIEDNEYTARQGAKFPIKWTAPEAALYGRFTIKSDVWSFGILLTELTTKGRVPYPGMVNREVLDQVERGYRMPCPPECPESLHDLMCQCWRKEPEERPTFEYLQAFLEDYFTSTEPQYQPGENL
# T3 sequence (P23975 whole entry): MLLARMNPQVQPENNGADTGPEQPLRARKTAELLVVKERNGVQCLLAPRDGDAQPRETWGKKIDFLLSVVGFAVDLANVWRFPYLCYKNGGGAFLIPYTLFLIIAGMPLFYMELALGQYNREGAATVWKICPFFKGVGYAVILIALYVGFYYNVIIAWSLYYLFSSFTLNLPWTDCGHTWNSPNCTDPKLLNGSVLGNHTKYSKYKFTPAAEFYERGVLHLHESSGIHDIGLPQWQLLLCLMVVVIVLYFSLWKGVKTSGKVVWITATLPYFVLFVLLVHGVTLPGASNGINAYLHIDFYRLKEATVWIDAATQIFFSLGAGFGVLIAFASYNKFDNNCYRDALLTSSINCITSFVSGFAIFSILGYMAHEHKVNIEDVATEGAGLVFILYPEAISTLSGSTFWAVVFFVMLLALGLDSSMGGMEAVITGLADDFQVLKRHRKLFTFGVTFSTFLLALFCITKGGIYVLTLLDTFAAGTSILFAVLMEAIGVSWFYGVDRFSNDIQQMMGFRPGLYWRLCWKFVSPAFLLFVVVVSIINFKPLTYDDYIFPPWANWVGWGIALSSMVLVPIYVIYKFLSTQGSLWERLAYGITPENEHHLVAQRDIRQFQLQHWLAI
# T4 sequence (P31645 whole entry): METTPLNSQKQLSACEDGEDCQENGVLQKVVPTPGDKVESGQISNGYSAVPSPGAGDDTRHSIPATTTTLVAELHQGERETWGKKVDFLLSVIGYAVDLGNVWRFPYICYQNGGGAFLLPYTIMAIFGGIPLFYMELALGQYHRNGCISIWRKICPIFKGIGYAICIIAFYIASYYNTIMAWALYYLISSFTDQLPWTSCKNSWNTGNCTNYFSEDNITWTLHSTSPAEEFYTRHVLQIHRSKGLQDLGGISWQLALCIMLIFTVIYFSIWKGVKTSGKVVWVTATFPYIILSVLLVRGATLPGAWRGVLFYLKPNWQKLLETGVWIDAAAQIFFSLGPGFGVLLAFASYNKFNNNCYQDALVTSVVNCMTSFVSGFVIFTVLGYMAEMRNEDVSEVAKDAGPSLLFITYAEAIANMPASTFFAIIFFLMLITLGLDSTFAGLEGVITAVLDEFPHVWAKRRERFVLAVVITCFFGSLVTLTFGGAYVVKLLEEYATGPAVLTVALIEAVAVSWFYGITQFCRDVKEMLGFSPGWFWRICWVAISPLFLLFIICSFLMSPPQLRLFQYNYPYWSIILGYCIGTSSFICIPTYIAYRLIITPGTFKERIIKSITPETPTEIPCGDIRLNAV
smiles,measurement,setting,value
"C=CCc1ccc(OC)c(-c2cc(CC=C)ccc2OC(CCNC)c2ccccc2)c1.Cl (stereo not drawn) [Example 2, 5,5'-Diallyl-2-methoxy-2'-[3-(methylamino)-1-phenylpropoxy]biphenyl hydrochloride]",inhibition at 10 µM,Src,55%
same,pIC50,tumor brain U-87 MG,5.66
same,pIC50,tumor breast MCF-7,5.59
same,pIC50,tumor breast MDA-MB-231,5.68
same,pIC50,tumor breast T-47D,4.92
same,pIC50,tumor colon HCT-116,5.68
same,pIC50,tumor leukaemia K562,5.38
same,pIC50,tumor liver Hep 3B,5.49
same,pIC50,tumor liver HepG2,5.44
same,pIC50,tumor lung A549,5.89
same,pIC50,tumor ovary OVCAR-3,5.64
same,pIC50,tumor prostate LNCaP-FGC,5.74
same,pIC50,tumor melanoma B16-FO,5.64
same,MTD,[1],50 mg/kg
same,antinociceptive activity in the formalin test,"mice [2]; 30 mg/kg i.p, early and late phases, potency similar to morphine 10 mg/kg i.p.",to a lesser extent
same,antinociceptive activity in the formalin model,"mice [2]; 10 and 30 mg/kg i.p, late phase",dose-dependent antinociceptive activity
same,Early Response,"mice [2]; formalin test, dose 30 mg/Kg i.p., early response 0-5 min",inactive
same,Late Response,"mice [2]; formalin test, dose 30 mg/Kg i.p., late response 20-30 min",active
same,antinociceptive activity in the hot plate test,mice [3],Dose-dependent antinociceptive activity
same,inhibition at 10 µM,[4],33%
"C=CCc1ccc(OCC)c(-c2cc(CC=C)ccc2OC(CCNC)c2ccccc2)c1 (stereo not drawn) [Example 3, 5,5'-Diallyl-2-ethoxy-2'-[3-(methylamino)-1-phenylpropoxylbiphenyl hydrochloride]",inhibition at 5 µM,NET,87%
same,% Inhibition (5.0 µM) NE Uptake,NE Uptake,85%
same,inhibition at 5 µM,SERT,73%
same,% Inhibition (5.0 µM) 5-HT Uptake,5-HT Uptake,52%
same,inhibition at 5 µM,5-HT2A receptor,86%
N.N.[Cl][Pt][Cl] [cisplatin],MTD,mice [5],4 mg/kg
CC(=O)O[C@H]1C(=O)[C@@]2(C)[C@H]([C@H](OC(=O)c3ccccc3)[C@]3(O)C[C@H](OC(=O)[C@H](O)[C@@H](NC(=O)c4ccccc4)c4ccccc4)C(C)=C1C3(C)C)[C@]1(OC(C)=O)CO[C@@H]1C[C@@H]2O [placlitaxel],MTD,mice [5],20 to 50 mg/kg
